“And” between values parts separate entries of the source, which are not always exact repeats. Equal entries are not always repeated.
Columns and labels:
[1] = Loading (uptake) of drug into microspheres, from depletion of loading solution (UV/HPLC); type: physicochemical; conditions: for dose loaded per ml of hydrated microspheres: 5 ml of 100 mg/ml drug in ethanol added to 0.5 ml microspheres; for ketoprofen loaded/ml spheres, maximum loading: at 24 hours; for ketorolac loaded in microspheres: low AMPS 500-710 μm, loaded from water
Method: A solution of 100 mg/ml flurbiprofen (Sigma) in ethanol was prepared. […] Low AMPS and high AMPS microspheres of size 500-710 μm were used and drug uptake monitored by UV. The samples were agitated on a roller mixer. Aliquots of supernatant were taken at 10, 20, 30, 60 mins and then at 2 hr, out to 24 hr. Uptake was calculated from the flurbiprofen remaining in solution. […] Microspheres of the present invention of each size loaded with 200 mg/ml flurbiprofen were placed in 250 ml water at 37° C.
The samples were agitated on a roller mnixer.
5 ml of the solution was added to 0.5 ml of low AMPS microspheres, of size 500-710 μm, and uptake monitored by HPLC. The samples were agitated on a roller mixer. Aliquots of supernatant were taken at 5, 10, 20 40 and 60 mins and then 24 hr.
The samples were agitated on a roller mixer. Samples of the supernatant were taken at 10, 20, 40, 60 mins and 24 hrs. […] Elution experiments were carried out on these microspheres (table 1). Microspheres were washed to determine quick burst in various media as in table 1. Then samples were placed in 10 ml solvent and absorbance read after 10 mins, a further 20 ml added and absorbance read after 10 mins, this was repeated up to 90 mls and elution was monitored up to 24 hrs (table 1).
Once prepared, the absorbances of the solutions were read by UV at 263 nm and dilutions were made to produce a standard curve. […] The vials were placed on a roller mixer at room temperature for the entire experiment. At a predetermined time points (0, 10, 20, 30 and 60 min) 100 μl was removed, diluted as necessary (1/200) and read at 263 nm. From the readings and the standard curve, the concentration of the solution at each time point was calculated. The amount of drug loaded onto the beads was measured by the depletion of the drug in solution when extracted with the beads. From the data the mg drug loaded per 1 ml of hydrated beads were calculated and the graph plotted.
Five samples of 1 ml of hydrated beads Low AMPS 700 to 1100 μm were used. For each sample, 1 ml of beads in phosphate buffered saline (PBS), measured with a 10 ml—glass cylinder, was transferred to a glass container and all the PBS was carefully removed with a glass Pasteur pipette. […] Once prepared, the absorbances of the solution and dilutions were read by UV at 263 nm to produce a standard curve. […] The vials were placed on the roller mixer at room temperature for the entire experiment. At predetermined time points (0, 20, 40, 60 and 120 min) 100 μl was removed, diluted as necessary (1/200) and read at 263 nm. From the readings and the standard curve, the concentration of the solution at each time point was calculated. The amount of drug loaded onto the beads was measured by the depletion of the drug in solution. From the data the mg drug loaded per 1 ml of beads were calculated and the graph plotted (FIG. 12).
Six samples of 1 ml of beads (700-1100 μm) were used. For each sample, 1 ml of beads in phosphate buffered saline (PBS), measured with a 10 ml glass cylinder, was transferred to a glass container and all the PBS was carefully removed with a glass Pasteur pipette. […] Once prepared, the absorbances of the solution and dilutions of the aqueous and of the alcoholic solutions were read by UV at 263 nm to produce standard curves. […] The vial was placed on the roller mixer at room temperature for the entire experiment. Once loaded, the remaining solution was removed, measured in a graduated measurement cylinder and read at 263 nm.

[2] = Release (elution) of drug from loaded microspheres in vitro; type: physicochemical; conditions: for salicylic acid loaded that was released: 100 ml water, majority within the first 15 minutes
[3] = system: HIF-1 alpha; conditions: COX-2 independent; cited from earlier work
[4] = system: HIF-2 alpha; conditions: COX-2 independent; cited from earlier work
[5] = system: COX-2/COX-1; conditions: 0 = equal potency; above 0 more selective to COX-1, below 0 more selective to COX-2; cited from earlier work
[6] = Plasma levels of ibuprofen after embolisation, intra-arterial or intravenous administration; type: in vivo; conditions: sheep, after intra-arterial administration (IA) of 50 mg solution in both left and right artery
[7] = system: colorectal cancer cell line; conditions: cited from earlier work
[8] = high AMPS microspheres 500-710 μm
[9] = in less than 30 minutes, low and high AMPS microspheres, 100 mg/ml in ethanol
[10] = low AMPS microspheres 500-710 μm
[11] = 10 ml water, 37° C., released in the first 5 minutes

SMILES: O=C(O)Cc1ccccc1Nc1c(Cl)cccc1Cl [Diclofenac]
- dose loaded per ml of hydrated microspheres [1, 8]: 30 mg per ml of hydrated microsph
- drug solution located in the microspheres [1, 9]: 99%
- dose loaded per ml of hydrated microspheres [1, 10]: 26 mg per ml of hydrated microsph
- further release ([2]; further in 48 hrs, microspheres loaded with 26 and 30 mg/ml, 250 ml water at 37° C.): 35%
- release ([2]; in first 5 minutes, microspheres loaded with 26 and 30 mg/ml, 250 ml water at 37° C.): 18-26%
- HIF-1 alpha gene expression [3]: inhibited
- HIF-2 alpha gene expression [4]: inhibited

SMILES: CC(C(=O)O)c1cccc(Oc2ccccc2)c1 (stereo not shown) [Fenoprofen]
- Log [IC80 ratio WHMA COX-2/COX-1)] [5]: 0

SMILES: CC(C(=O)O)c1ccc(-c2ccccc2)c(F)c1 (stereo not shown) [Flurbiprofen]
- dose loaded per ml of hydrated microspheres [1, 8]: 197 mg per ml of hydrated microsph
- drug solution located in the microspheres [1, 9]: 99%
- dose loaded per ml of hydrated microspheres [1, 10]: 195 mg per ml of hydrated microsph
- further release ([2]; further in 2 days, microspheres loaded with 200 mg/ml, 250 ml water at 37° C.): 5%
- release ([2]; in first 10 minutes, microspheres loaded with 200 mg/ml, 250 ml water at 37° C.): 30%

SMILES: CC(C)Cc1ccc(C(C)C(=O)O)cc1 (stereo not shown) [Ibuprofen]
- Loading mg/ml Bead ([1]; 2 ml loading solution (250 mg/ml in ethanol) to 1 ml low AMPS microspheres, listed as Ibuprofen Free Acid): 177.3 mg/ml Bead and 185.24 mg/ml Bead and 142.82 mg/ml Bead and 187.08 mg/ml Bead and 207.7 mg/ml Bead and 235.53 mg/ml Bead
- Loading mg/ml Bead ([1]; 3 ml loading solution (250 mg/ml in ethanol) to 1 ml low AMPS microspheres): 323.7 mg/ml Bead
- time at which optimum loading is obtained ([1]; loaded from ethanol, low AMPS beads 700 to 1100 μm, contraction then expels drug solution): around 20 mins
- doses loaded per ml of hydrated microspheres ([1]; low AMPS microspheres, 250 mg/ml in ethanol, range over series of experiments): 142-335 mg per ml of hydrated microspheres
- Elution rate (range) ([2]; low AMPS microspheres, elution up to 90 mls, up to 24 hrs, over experiments of table 1): 20%-43%
- Elution rate, average in most experiments ([2]; low AMPS microspheres, up to 24 hrs): 25%
- Eluted Drug ([2]; quick burst/wash out solvent 50% ethanol, elution solvent 50% ethanol, up to 24 hrs): 53 mg
- Eluted Drug ([2]; quick burst/wash out solvent 100% ethanol, elution solvent 0.9% Saline (pH 12), up to 24 hrs): 60 mg
- Eluted Drug ([2]; quick burst/wash out solvent 100% ethanol, elution solvent 50% ethanol, up to 24 hrs): 47 mg
- quick burst ([2]; wash of loaded low AMPS microspheres in various media): approximately 15%
- Eluted Drug ([2]; wash out and elution solvent 0.9% Saline (pH 12), 2 ml loading solution, up to 24 hrs, listed as Ibuprofen Free Acid): 47 mg and 83 mg and 57 mg
- Eluted Drug ([2]; wash out and elution solvent 0.9% Saline (pH 12), 3 ml loading solution, up to 24 hrs): 77 mg
- Cmax [6]: 32000 ng/mL
- HIF-2 alpha gene expression [4]: inhibited

SMILES: CC(C(=O)O)c1cccc(C(=O)c2ccccc2)c1 (stereo not shown) [Ketoprofen]
- ketoprofen loaded/ml spheres, maximum loading ([1]; high AMPS microspheres 500-710 μm, 30 mg/ml in ethanol): approximately 10 mg ketoprofen loaded/ml spheres
- ketoprofen loaded/ml spheres, maximum loading ([1]; low AMPS microspheres 500-710 μm, 30 mg/ml in ethanol): approximately 12 mg ketoprofen loaded/ml spheres
- time of maximum loading ([1]; low and high AMPS microspheres, 30 mg/ml in ethanol, monitored over 72 hours): 24 h

SMILES: O=C(c1ccccc1)c1ccc2n1CCC2C(=O)O (stereo not shown) [Ketorolac]
- ketorolac loaded in microspheres ([1]; high loaded microspheres): 27 mg/mL
- drug solution located in the microspheres ([1]; in less than 10 minutes, low AMPS microspheres 500-710 μm, 50 mg/ml and 10 mg/ml in water): 99%
- ketorolac loaded in microspheres ([1]; low loaded microspheres): 13 mg/mL
- released ([2]; high AMPS loaded microspheres (so in the source), first 5 minutes, 250 ml water at 37° C.): 43%
- further slow release ([2]; high AMPS loaded microspheres (so in the source), further in the next 24 hrs): 4%
- released ([2]; high AMPS loaded microspheres (so in the source), in 1 hrs, 250 ml water at 37° C.): 90%
- released ([2]; low loaded microspheres, first 5 minutes, 250 ml water at 37° C.): 75%
- further release ([2]; low loaded microspheres, further in next 24 hrs): 5%
- released ([2]; low loaded microspheres, in 1 hr, 250 ml water at 37° C.): 90%
- HIF-2 alpha gene expression [4]: inhibited

SMILES: CS(=O)(=O)Nc1ccc([N+](=O)[O-])cc1OC1CCCCC1 [NS398]
- HIF-2 alpha gene expression [4]: inhibition
- expression of pro-angiogenic factors, including VEGF [7]: diminished

SMILES: COc1ccc2cc([C@H](C)C(=O)O)ccc2c1 [Naproxen]
- naproxen taken up per ml of spheres ([1]; low or high AMPS microspheres 500-710 μm, 30 mg/ml in ethanol, over 168 hours): 35-40 mg naproxen/ml of spheres
- drug released per ml of microspheres [2, 11]: 6-9 mg/ml of microspheres
- loaded drug released from the microspheres [2, 11]: 17-25%
- further release after transfer to fresh water ([2]; transfer to 10 ml fresh water after 17 hours, measured 7 hours more): did not bring about any further release

SMILES: O=C(O)c1cccnc1Nc1cccc(C(F)(F)F)c1 [Niflumic Acid]
- Log [IC80 ratio WHMA COX-2/COX-1)] [5]: 0

SMILES: Cc1cc(CC(=O)O)n(C)c1C(=O)c1ccc(Cl)cc1 [Zomepirac]
- Log [IC80 ratio WHMA COX-2/COX-1)] [5]: 0

SMILES: CC(C)Cc1ccc(C(C)C(=O)[O-])cc1.[Na+] (stereo not shown) [ibuprofen sodium salt]
- time at which maximum loading is reached ([1]; loaded from ethanol 250 mg/ml, low AMPS beads 700-1100 μm, loading decreases afterwards): about 20 minutes
- loading levels, drug per ml of hydrated beads ([1]; range over six microsphere products, 2 ml of 100 mg/ml in water to 1 ml microspheres, 100 minute period): 67 to 142 mg of drug per ml of hydrated beads

SMILES: O=C(O)c1ccccc1O [salicylic acid]
- maximum salicylic acid taken up per ml of microspheres ([1]; low or high AMPS 500-710 μm, 5 mg/ml in ethanol, after 3-4 hours): 3-4 mg salicylic acid/ml of microspheres
- salicylic acid taken up per ml of microspheres ([1]; low or high AMPS 500-710 μm, 5 mg/ml in ethanol, after 24 hours): 2-3 mg/ml of microspheres
- salicylic acid loaded that was released ([2]; high AMPS microspheres, 37° C.): approximately 30%
- salicylic acid loaded that was released ([2]; low AMPS microspheres, 37° C.): approximately 25%
- further release after transferral into fresh water ([2]; transfer to 10 ml fresh water after 60 hours, measured 60 hours more): did not bring about any further release
